Consider 4 molecules from USRE40233E1, “Viral variants and methods for detecting same” (Melbourne Health, priority 1996, dated 2008).

The target of assay [1] is T1, HBV DNA polymerase (Hepatitis B virus genotype D subtype ayw, UniProt P03156, L515M/V508L).
T1 construct: Small aliquots of the suspension were assayed for endogenous HBV DNA polymerase activity; from tissue; host or cells: patient serum; virions pelleted through a 20% sucrose cushion and treated with Triton X-100
The experiment in a line: endogenous HBV DNA polymerase assay, PCV-TP sensitivity. As to conditions: 100 μmol/L PCV-TP, serum HBV of patient A. It counts as biochemical. As to the method:
(§1) Samples of serum (100 μl) were applied to a 20% w/v sucrose cushion in TNE (20 mmol/L Tris-HCl pH 7.4, 150 mmol/L NaCl2 1 mmol/L EDTA) and centrifuged at 200,000 g for 3 hr at 10° C. using an SW41 rotor in a Beckman Model L8 ultracentrifugc. The pellet was resuspended in 50 mmol/L TRIS-HCl pH 7.5 containing 1.5% v/v Triton-X100, 100 mmol/L Kcl and 0.01% v/v 2-mercaptoethanol and allowed to stand overnight at 4° C. Small aliquots of the suspension were assayed for endogenous HBV DNA polymerase activity essentially as described by Price et al (16). Each assay was performed in a total volume of 30 μl which contained 20 μl of the partly purified HBV and (final concentrations) 30 mmol/L Tris-HCl pH 7.5, 30 mmol/L MgCl2, 10 μmol/L each dATP, dTTP and dGTP, and 0.01 μM [α-^32P]-dCTP (3,000 Ci/mmol) (Dupont NEN, Boston, Mass.). To test for penciclovir triphosphate (PCV-TP) sensitivity, paired assays were performed on each sample, with an excess (100 μmol/L penciclovir-triphosphate included in the reaction mixture in one assay of each pair. After 2 hr at 37° C., reactions were stopped by spotting 20 μl aliquots of each reaction mix onto 25 mm diameter glass fibre discs (Advantex, Tokyo, Japan) which had been pre-soaked in 10% w/v trichloroacetic acid (TCA). Discs were dried before washing in ice-cold 10% w/v TCA containing 10 mmol/L sodium pyrophosphate.
(§2) Three further 10 min. washes in cold 5% v/v TCA followed. The washed discs were finally rinsed in absolute ethanol, air dried, and counted for radioactivity. Inhibition of HBV DNA polymerase activity by PCV-TP was expressed as the percentage difference in activity in the assay mix containing PCV-TP compared to the matched control. Because of limited sample amounts, it was not possible to standardize enzyme activity or to perform replicate assays. Despite the inherent variability of the assay, a general time related decrease in sensitivity of the HBV DNA polymerase to PCV-TP was evident (see Table 1).

Assay [2] relates to HBV DNA polymerase. The assay is described as above. Format: biochemical, Hepatitis B Virus. As to conditions: 100 μmol/L PCV-TP, serum HBV of patient A. As to the method: as §1, §2
The next assay relates to duck HBV. The note with it: in vitro; cited from earlier work.
Assay [3] concerns HBV DNA polymerase-reverse transcriptase. The note with it: in vitro; cited from earlier work.
The test system of assay [4] is HBV. The experiment in a line: serum HBV DNA level during antiviral therapy, patient A (post-OLT). It counts as in vivo, Hepatitis B Virus. From the text:
The patient was transplanted because of end-stage liver failure due to chronic HBV infection. The initial post transplant course was unremarkable but by 5 months there was evidence of recurrent infection and very high levels of viral replication and deteriorating liver function (12). The histological picture was consistent with fibrosing cholestatic hepatitis. Antiviral treatment was commenced approximately 6 months post-OLT. Initially, the patient received intravenous (iv) ganciclovir (GCV; 10 mg/kg/day) in combination with iv foscarnet (PFF; 50-125 mg/kg/day; the dose depending on renal function) (12). This is the treatment of GCV+PFF described in FIG. 2 which lasted for 86 days. Maintenance iv GCV (3.3-6.7 mg/kg/day) three times per week was commenced on day 87 of antiviral treatment (GCV in FIG. 2). Oral famciclovir (250 mg, twice daily) was commenced on day 446 of therapy (FCV [I] in FIG. 2) which was increased to 500 mg twice daily (FCV [II] in […]) on day 500. The patient is currently on this treatment regime. The clinical and virological details of this patient preceding famciclovir therapy have been reported (12).
Serum samples were routinely collected and stored at −70° C. Informed consent was obtained from the patient to use these samples for research purposes. […] The 5 samples chosen for additional studies cover a period of almost four years.
Hepatitis B surface antigen (HbsAg), hepatitis B e antigen (HbeAg), anti-HBe, hepatitis B core antigen (HbcAg) specific IgG and IgM, hepatitis A specific IgM, hepatitis delta antigen and antibody, and anti-hepatitis C virus antibody were measured using commercially available immunoassays (Abbott Laboratories, North Chicago, Ill.). Only the HBV markers were positive. Hepatitis B viral DNA levels were measured and quantified using a capture hybridisation assay according to the manufacturer's directions (Digene Diagnostics Inc., Beltsville, Md.).
This reduction in viraemia was associated with clinical, biochemical and histological improvement (12). […] However, the level of HBV DNA gradually rose over time from 3,000 pg/ml on day 600 (154 days of famciclovir), to 8,800 pg/ml on day 816 (370 days famciclovir), peaking at 29,000 pg/ml on day 1302 (856 days of famciclovir), then stabilising at around 12,000 pg/ml on day 1329 (883 days of famciclovir). […] There was a 1.5 to 2 fold rise in ALT levels over the same time interval (FIG. 2) and no change in clinical status.

The test system of assay [5] is HBV. As to conditions: in man, patient with severe hepatitis B following OLT; cited from earlier work.
The subject of the next assay is duck HBV virus. The note with it: oral, in vivo; cited from earlier work.
Assay [6] relates to HBV. Kind of assay: response to antiviral treatment, patient C. Format: in vivo, Hepatitis B Virus. From the text:
Patient B was undergoing long term famciclovir treatment (>850 days). The amino acid change selected during famciclovir treatment is shown as HBV (patient B) in FIG. 5. […] The HBV isolated during FCV treatment from patient C, is shown as HBV (patient C-FCV). All 3TC resistance mutations which developed during treatment with 3TC is shown as HBV (patient C-3TC). […] A mutation of Met 550 to Ile in the YMDD motif was detected from HBV isolated 32 days (333 days post treatment) after the HBV containing the Thr-Ser substitution was isolated.

T1 sequence (P03156 whole entry V508L/L515M): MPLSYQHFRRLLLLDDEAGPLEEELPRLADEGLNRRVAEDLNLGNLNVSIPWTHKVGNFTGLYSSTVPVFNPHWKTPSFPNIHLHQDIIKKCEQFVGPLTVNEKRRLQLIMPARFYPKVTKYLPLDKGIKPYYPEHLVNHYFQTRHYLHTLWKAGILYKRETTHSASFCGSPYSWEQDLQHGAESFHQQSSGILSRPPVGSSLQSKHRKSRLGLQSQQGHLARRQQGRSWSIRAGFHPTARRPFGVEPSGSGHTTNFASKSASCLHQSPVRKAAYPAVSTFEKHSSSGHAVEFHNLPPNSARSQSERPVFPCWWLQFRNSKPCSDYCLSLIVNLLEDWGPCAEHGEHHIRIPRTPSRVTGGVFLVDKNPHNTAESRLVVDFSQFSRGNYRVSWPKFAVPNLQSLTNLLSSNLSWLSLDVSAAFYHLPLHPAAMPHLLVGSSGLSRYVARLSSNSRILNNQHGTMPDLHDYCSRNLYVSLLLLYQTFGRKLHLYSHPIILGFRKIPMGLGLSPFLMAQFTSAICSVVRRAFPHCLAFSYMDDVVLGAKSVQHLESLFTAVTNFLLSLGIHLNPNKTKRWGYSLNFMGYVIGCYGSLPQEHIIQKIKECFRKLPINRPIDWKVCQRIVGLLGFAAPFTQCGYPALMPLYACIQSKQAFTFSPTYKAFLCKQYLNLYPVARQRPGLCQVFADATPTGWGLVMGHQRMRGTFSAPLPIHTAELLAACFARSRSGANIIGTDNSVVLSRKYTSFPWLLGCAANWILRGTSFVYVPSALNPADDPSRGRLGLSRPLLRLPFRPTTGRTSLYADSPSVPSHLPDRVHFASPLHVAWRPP

As to penciclovir triphosphate [PCV-TP], the “Inhibition of HBV DNA polymerase by PCV-TP” value was 0% at HBV DNA polymerase [1] (day 816 of antiviral treatment (370 days famciclovir), Val519Leu/Leu526Met); 0% at HBV DNA polymerase [1] (day 1329 of antiviral treatment (883 days famciclovir)); 30% with HBV DNA polymerase [2] (day 600 of antiviral treatment (154 days famciclovir)); 40% with HBV DNA polymerase [2] (pretreatment sample).
Take `Nc1nc2c(ncn2CCC(CO)CO)c(=O)[nH]1` [Peniciclovir, penciclovir]: the “activity against duck HBV DNA synthesis” value in the assay on duck HBV is “potent inhibitory activity”. Further, in assay [3], the “HBV DNA polymerase-reverse transcriptase activity” value is reported as “inhibit”.
Consider `Nc1nc(O)c2ncn(COC(CO)CO)c2n1` [GCV, ganciclovir], for which the “levels of HBV DNA” value with HBV [4] (maintenance iv GCV from day 87, over 359 days) was “fluctuating levels of HBV DNA”.
As to `CC(=O)OCC(CCn1cnc2cnc(N)nc21)COC(C)=O` [famciclovir], in the assay on HBV [5], the “HBV DNA replication” value is “reduce HBV DNA replication”. In the assay with duck HBV virus, the “intra-hepatic replication of duck HBV virus” value was “inhibit”. In addition, in the assay on HBV [6], the response to treatment result was “did not respond”. Moreover, the “level of HBV DNA” value was 3,000 pg/ml with HBV [4] (day 600 (154 days of famciclovir)); 8,800 pg/ml in the assay with HBV [4] (day 816 (370 days famciclovir)); 29,000 pg/ml in the assay on HBV [4] (day 1302 (856 days of famciclovir), peak); “around 12,000 pg/ml” with HBV [4] (day 1329 (883 days of famciclovir)). Moreover, the “HBV DNA change” value in the assay on HBV [4] (dose increase to 500 mg twice daily on day 500 (FCV[II])) is on record as “decrease in HBV DNA”; with HBV [4] (switch to oral famciclovir 250 mg twice daily on day 446 (FCV[I])), “rise in HBV DNA”.
